Experimental data from patent US6800247B1, “Deactivants for dust mite allergens” (priority 1997, dated 2004).
Structures can show the parent of a compound that is named as a salt. Where two headings read alike, the source gives them in different places.

Experiments:
Format in all cases: biochemical
Der-f allergens [1] = molecular target: T1, Der-f allergens (Dermatophagoides farinae, UniProt P16311); set-up: Amount of Allergen remaining active after deactivant treatment: unit not given here
T1 construct: Dust is collected from Hoover™ vacuum cleaner bags and passed through a series of sieves down to 63 microns; from tissue; host or cells: house dust from vacuum cleaner bags, sieved to 63 microns
T1 sequence (P16311 99-321): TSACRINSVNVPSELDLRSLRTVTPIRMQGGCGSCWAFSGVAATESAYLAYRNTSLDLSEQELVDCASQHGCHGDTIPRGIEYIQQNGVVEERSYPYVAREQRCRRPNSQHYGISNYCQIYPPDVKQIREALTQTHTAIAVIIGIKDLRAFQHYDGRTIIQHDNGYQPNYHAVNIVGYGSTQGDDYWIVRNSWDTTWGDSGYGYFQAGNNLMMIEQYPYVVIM
Description: (§1) The ELISA protocol for Der-f and Der-p has been developed as follows as a measure of denaturing property for denaturants.
(§2) 1. Dust is collected from Hoover™ vacuum cleaner bags and passed through a series of sieves down to 63 microns.
(§3) 2. Clean petri dishes are labelled with the chemical to be tested (on the base). Three replicates are used for each treatment.
(§4) 3. Filter paper is used to line each dish and 0.2 g of dust is added to each dish onto the filter paper. The lid (or base, as dishes are inverted) is replaced and the dish is shaken to disperse the dust evenly over the filter paper.
(§5) 4. 2% aqueous solutions of deactivant were used except for the silver chloride composite where 0.05% was used instead. Immobilised tannic acid was used as a 1% dispersion. The hydrogenerated hop end was used at the 2% level (in the form of a 10% solution). Water-insoluble deactivants were emulsified with a sorbitone oleate surfactant (i.e. Tween). Hinokitol was used at 0.5% not 2%.
(§6) 5. The dust is sprayed with the corresponding treatment, 2 sprays are required for sufficient coverage (1 spray=1.5 ml).
(§7) 6. Leave uncovered at room temperature, in well aerated room, until filter paper is dry. This can take up to 4 hours.
(§8) 7. Empty dust in epindorfs labelled according to treatment.
(§9) 8. Add 1 ml of 5% Bovine Serum Albumen Phosphate Butter Saline—Tween BSA-PBS-T to each epindorf (5 times the weight of dust) (20 ml of BSA-PBS-T=1 g of BSA in 20 ml of PBS-T).
(§10) 9. Leave overnight in a refrigerator.
(§11) 10. Centrifuge for 5 minutes at 13,000 rpm.
(§12) 11. Decant the supernatant into a new epindorf labelled according to treatment.
(§13) 12. Centrifuge again for 5 minutes at 13,000 rpm.
(§14) 13. Make up dilutions of 1:10 and 1:100 by adding 100 μl of neat solution to 900 μl of 1% BSA-PBS-T (1:10). This is repeated using 100 μl of 1:10 dilution and add to 900 μl of 1% BSA-PBS-T for 1:100 dilution.
(§15) ELISA Protocol 2 for Der-f and Der-p: Indoor Biotechnologies
(§16) 1. Prepare samples and dilutions as in protocol
(§17) 2. Prepare 500 ml of 50 mM carbonate/bicarbonate buffer by dissolving 0.795 g Na2CO3 and 1.465 g NaHCO3 in 500 ml of distilled water. Check the pH is at 9.6. (This solution is kept in the refrigerator in a conical flask).
(§18) 11 ml of carbonate/bicarbonate buffer is added to the dispensing tray.
(§19) 11 μl of Der-f1 or Der-p1 monoclonal antibody
(§20) (Stored in freezer, epindorf in use is in the refrigerator) is added to the buffer. To ensure that all the antibody is removed from the tip, wash out the pipette tip by sucking up and down I the buffer solution, gently stirring to mix thoroughly.
(§21) 4. Pipette 100 μl of the antibody solution into each well of the microtiter plate, cover with a plate sealer and leave overnight at 4° C.
(§22) 5. Empty the plate by quickly inverting it over the sink, then dry by banging on a stack of paper towels.
(§23) 6. Add 200 μl of wash buffer to each well: PBS/0/05% tween (PBS-T)
(§24) 7. Repeat stages 5 and 6 once more (making a total of 2 washes).
(§25) 8. Make sure all the wells are dry, then add 100 μl of 1% BSA-PBS-T. Replace the plate sealer and incubate for 1 hour at room temperature*.
(§26) 9. Repeat steps 5 to 7 (2 washes).
(§27) This is mixed thoroughly.
(§28) 11. Add 100 μl aliquots of the allergen sample to the plate along with the standard allergen samples for the reference curve in duplicate. The standards usually go in the first two columns on the left hand side, with the least concentrated on top. Incubate for 1 hour.
(§29) 12. Follow stages 5 to 6, completing a total of 5 washes.
(§30) 13. Pour 11 ml of 1% BSA-PBS-T(0.11 g of BSA to 11 ml of PBS-T) to the dispensing tray. Add 11 μl of the biotinylated monoclonal antibody (refrigerator) and mix thoroughly.
(§31) 14. Pipette 100 μl into each well and incubate for 1 hour at room temperature.
(§32) 15. Empty plate and wash as described in stage 12. (5 washes).
(§33) 16. Add 11 μl of Streptavidin (freezer) to 11 ml of 1%BSA-PBS-T. Pipette 100 μl into each well and incubate for 30 minutes. Reserve any remaining solution in a vial.
(§34) 17. Empty plate and wash as described in stage 12 (5 washes).

Der-f allergens [2] = molecular target: T1, Der-f allergens; details: for Ratio of actives remaining after deactivant treatment over those remaining after tannic acid treatment: Examples 48-55, tested as above and compared with tannic acid
Description: as §1, §2, §3, §4, §5, §6, §7, §8, §9, §10, §11, §12, §13, §14, §15, §16, §17, §18, §19, §20, §21, §22, §23, §24, §25, §26, §27, §28, §29, §30, §31, §32, §33, §34

Der-p allergens = molecular target: T2, Der-p allergens (Dermatophagoides pteronyssinus, UniProt P08176); experiment: Deactivation of Der-p allergens (ELISA protocol), summary statement
T2 construct: Dust is collected from Hoover™ vacuum cleaner bags and passed through a series of sieves down to 63 microns; from tissue; host or cells: house dust from vacuum cleaner bags, sieved to 63 microns
T2 sequence (P08176 99-320): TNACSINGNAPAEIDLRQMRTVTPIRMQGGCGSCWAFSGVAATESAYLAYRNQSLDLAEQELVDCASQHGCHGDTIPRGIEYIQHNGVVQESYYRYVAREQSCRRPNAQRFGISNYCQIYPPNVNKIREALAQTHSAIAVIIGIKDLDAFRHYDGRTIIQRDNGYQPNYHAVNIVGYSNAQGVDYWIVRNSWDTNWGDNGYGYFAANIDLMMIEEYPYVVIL
Description: The test procedure in Examples 1 to 55 is as follows and is known as the ELISA protocol.
as §1, §15, §19

[3] = Der-f, 0.2 g sieved house dust sprayed with 2% aqueous deactivant (AgCl composite 0.05%, immobilised tannic acid 1%, hinokitol 0.5%)
[4] = Der-f, compared with vacuuming only, no deactivant, 2% deactivant (AgCl composite 0.05%, immobilised tannic acid 1%, hinokitol 0.5%)

| Compound | Ratio of remaining active allergen after Deactivant/Tannic Acid Treatment (Der-f allergens [1]) | Amount of Allergen remaining active after deactivant treatment (Der-f allergens [1]; [3]) | Amount of active Allergen remaining after deactivant treatment (Der-f allergens [2]; [4]) | Effectiveness against Der-p allergens (Der-p allergens) | Ratio of actives remaining after deactivant treatment over those remaining after tannic acid treatment (Der-f allergens [2]) | Ratio of remaining active allergen after Deactivant/Tannic Acid Treatment (Der-f allergens [1]; Der-f, ratio below 1 = better than tannic acid) | Amount of Allergen remaining active after deactivant treatment (Der-f allergens [1]) | Amount of active Allergen remaining after deactivant treatment (Der-f allergens [2]) |
| --- | --- | --- | --- | --- | --- | --- | --- | --- |
| cyclodextrin | 2.265 | 3850 |  |  |  |  |  |  |
| CCCCCCCCCCCCCCCC[N+](C)(C)C.[Cl-] [hexadecyltrimethylammonium chloride] | 2.264 | 4075 | 2863 |  |  |  |  |  |
| O=C([O-])CS.[K+] [Potassium thioglycolate, potassium thioglycolate] |  |  | 3092 | effective against Der-p allergens only |  |  |  |  |
| O=C1O[C@H]([C@@H](O)CO)C(O)=C1O [L-Ascorbic Acid, L-ascorbic acid] | 1.333 | 2000 | 1438 |  |  |  |  |  |
| aluminium chlorohydrate | 2.233 | 1675 | 978 |  |  |  |  |  |
| CN1CCCC1=O [N-methyl pyrrolidone, N-methylpyrrolidone] | 1.362 | 1600 |  |  | 4.0 |  |  |  |
| O=C1c2ccccc2C(=O)c2ccccc21 [Anthraquinone sodium salt, the sodium salt of anthraquinone] | 0.765 | 1530 |  |  |  |  |  |  |
| NC(N)=O [Urea, urea] | 2.500 | 3750 |  |  |  |  |  |  |
| O=C(NCO)N(CO)C1(CO)C(=O)NC(=O)N1CO (centres unmarked) [Germall II, diazolidinylurea] | 0.685 | 950 |  |  | 1.5 |  |  |  |
| N=C(NCCCCCCNC(=N)NC(=N)Nc1ccc(Cl)cc1)NC(=N)Nc1ccc(Cl)cc1 [Chlorohexidine, 1,1′-hexamethylenebis [5-(4-chlorophenyl)]-biguanide] | 0.991 | 1412.5 | 2281 |  | 3.0 |  |  |  |
| CCCCC(CC)COC(=O)CC(C(=O)OCC(CC)CCCC)S(=O)(=O)[O-].[Na+] (centres unmarked) [Aerosol OT] | 1.298 | 1525 | 4494 |  |  |  |  |  |
| Cc1ccc(C(C)C)c(O)c1 [Thymol, 6-isopropyl-m-cresol] | 0.523 | 725 | 1500 |  | 4.0 |  |  |  |
| O=C1C=CC(=O)O1 [Maleic anhydride, maleic anhydride] | 0.875 | 1312.5 | 783 |  | 1.0 |  |  |  |
| CC(C)c1cccc(=O)c(O)c1 [Hinokitol, β-thujaplicin] | 1.533 | 3065 | 2058 |  |  |  |  |  |
| O=CCCCC=O [Glutaraldehyde, qlutaraldehyde] |  |  | 816 | effective against Der-p allergens only | 1.5 |  |  |  |
| C=CCc1cc(OC)c2c(c1OC)OCO2 [Parsley Camphor] |  | 1225 | 2581 |  |  | 0.883 |  |  |
| N.N.O=S(=O)(O)O [Ammonium sulphate, ammonium sulphate] | 1.618 |  |  |  |  |  | 2750 | 2325 |
| CCCOCC(C)O (centres unmarked) [1-propoxy-propanol-2] | 2.194 | 3950 | 1233 |  |  |  |  |  |
